Test results as given in patent US20250129135A1, “Multi-Agonist and Use Thereof” (priority 2021, published 2025).
Starred links: 1 amine or outer side, 2 acyl side, 3 side chain; linkers in the order of their positions; H or OH if unused. Non-standard residues stand in square brackets, D forms with d. Residues, ends and D or L forms follow the SMILES beside them. Groups on a side chain read outwards from the residue. *: point of attachment. C20 diacid = O=C(O)CCCCCCCCCCCCCCCCCCC(=O)*; αMePhe(2-F) = C[C@](N)(Cc1ccccc1F)C(=O)O; γGlu = O=C(O)[C@H](CCC(=O)[*:2])N[*:1]; αMeF = C[C@](N)(Cc1ccccc1)C(=O)O; αMeL = CC(C)C[C@](C)(N)C(=O)O; AEEA = NCCOCCOCC(=O)O; Ac3c = NC1(C(=O)O)CC1; Aib = CC(C)(N)C(=O)O

Experiments:
3T3-L1 adipocytes = conditions: for Rel. A (Relative Activity) on 3T3-L1 adipocyte: relative to GIP
In short: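 Mouse 3T3-L1 preadipocytes were differentiated with IBMX, dexamethasone and insulin for 5 days, then insulin plus 10 uM rosiglitazone for 3 days, then 10% FBS medium for 2–3 days. Mature adipocytes received 10-point, 3-fold compound dilutions for 60 min at room temperature. cAMP was read by kit detection reagent after a further 60 min, with concentration-effect curves fitted.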

Human GLP-1R = Human GLP-1R (Homo sapiens, UniProt P43220); experiment: cAMP (HTRF) activity in HEK-293 cells stably overexpressing human GLP-1 receptor; type: cell-based; design: expressed in transfected cells; host or cells: HEK-293; conditions: for Human GLP-1R Rel. A (Relative Activity): EC50 of human GLP-1 (7-37) / EC50 of compound; for EC50: stable transfected cell cAMP activity, at least 3 independent tests
In short: (§1)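 Agonism was assessed from intracellular cAMP by HTRF. Cells resuspended in HBSS were treated with compound for 60 minutes at room temperature, then with detection reagent for a further 60 minutes. EC50 (nM) values came from concentration–response curves.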

RIN-m5F cells = type: cell-based, rat; conditions: for Rel. A (Relative Activity) on RIN-m5F: relative to GLP-1(7-37)
In short: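 cAMP production measured in RIN-m5F cells resuspended in HBSS; compounds incubated 60 min at room temperature, then detection reagent added for a further 60 min before read-out.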

[1] = system: human primary liver cells; type: cell-based; conditions: for Rel. A (Relative Activity) on human primary liver cells: relative to GCG
In short: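 Human primary hepatocytes, thawed at 37° C and resuspended in HBSS, exposed to compound for 60 min at room temperature. Detection reagent then added for 60 min before cAMP readout.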

Human GCG R = biological target: T1, Human GCG R (Homo sapiens, UniProt P47871); experiment: cAMP (HTRF) activity in HEK-293 cells stably overexpressing human GCG receptor; type: cell-based; conditions: EC50 of human GCG / EC50 of compound
T1 construct: expressed in transfected cells; host or cells: HEK-293
In short: as §1

Human GIP R = biological target: T2, Human GIP R (Homo sapiens, UniProt P48546); experiment: cAMP (HTRF) activity in CHO cells stably overexpressing GIP receptor; type: cell-based; conditions: for Human GIP R Rel. A (Relative Activity): EC50 of human GIP / EC50 of compound; for EC50: stable transfected cell cAMP activity, at least 3 independent tests
T2 construct: expressed in transfected cells; host or cells: CHO
T2 sequence (P48546 22-466): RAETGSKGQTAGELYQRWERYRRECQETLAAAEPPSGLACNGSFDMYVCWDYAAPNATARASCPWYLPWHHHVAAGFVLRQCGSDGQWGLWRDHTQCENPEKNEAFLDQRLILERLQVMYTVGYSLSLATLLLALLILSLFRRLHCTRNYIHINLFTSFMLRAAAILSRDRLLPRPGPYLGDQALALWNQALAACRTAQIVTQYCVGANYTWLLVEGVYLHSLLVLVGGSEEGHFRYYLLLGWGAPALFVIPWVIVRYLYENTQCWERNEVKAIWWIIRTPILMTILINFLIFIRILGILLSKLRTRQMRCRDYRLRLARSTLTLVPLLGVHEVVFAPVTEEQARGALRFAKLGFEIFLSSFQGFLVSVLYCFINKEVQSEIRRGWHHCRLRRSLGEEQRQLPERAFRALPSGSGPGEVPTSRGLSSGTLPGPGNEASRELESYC
In short: as §1

Sequence of Human GLP-1R (P43220 24-463): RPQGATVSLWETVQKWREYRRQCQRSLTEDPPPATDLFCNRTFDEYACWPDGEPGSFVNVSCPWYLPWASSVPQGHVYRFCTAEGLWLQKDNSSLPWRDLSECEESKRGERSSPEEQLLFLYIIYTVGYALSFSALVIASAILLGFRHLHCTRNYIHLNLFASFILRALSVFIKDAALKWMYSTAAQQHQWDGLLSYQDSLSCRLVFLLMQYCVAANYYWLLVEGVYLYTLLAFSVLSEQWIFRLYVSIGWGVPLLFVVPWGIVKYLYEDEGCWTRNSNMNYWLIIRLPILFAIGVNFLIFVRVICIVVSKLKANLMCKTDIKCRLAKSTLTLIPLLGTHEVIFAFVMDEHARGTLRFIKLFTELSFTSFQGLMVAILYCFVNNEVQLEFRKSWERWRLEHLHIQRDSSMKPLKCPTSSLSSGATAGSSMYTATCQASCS
T1 sequence (P47871 26-477): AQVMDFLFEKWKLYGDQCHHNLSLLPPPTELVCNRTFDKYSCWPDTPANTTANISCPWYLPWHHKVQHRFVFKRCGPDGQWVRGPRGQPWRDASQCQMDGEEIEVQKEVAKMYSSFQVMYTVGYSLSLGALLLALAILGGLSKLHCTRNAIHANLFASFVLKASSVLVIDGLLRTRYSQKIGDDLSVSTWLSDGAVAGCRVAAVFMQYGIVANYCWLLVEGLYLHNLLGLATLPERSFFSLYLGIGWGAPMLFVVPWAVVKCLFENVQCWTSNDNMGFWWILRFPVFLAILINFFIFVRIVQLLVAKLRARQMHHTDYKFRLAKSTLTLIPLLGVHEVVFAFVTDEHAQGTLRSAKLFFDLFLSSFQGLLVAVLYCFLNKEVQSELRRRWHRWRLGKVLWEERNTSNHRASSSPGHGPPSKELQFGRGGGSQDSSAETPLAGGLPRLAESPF

Structure (SMILES)	EC50 (3T3-L1 adipocytes)	Rel. A (Relative Activity) on 3T3-L1 adipocyte (3T3-L1 adipocytes)	Human GLP-1R Rel. A (Relative Activity) (Human GLP-1R)	EC50 (RIN-m5F cells)	Rel. A (Relative Activity) on RIN-m5F (RIN-m5F cells)	EC50 [1]	Rel. A (Relative Activity) on human primary liver cells [1]	Human GCG R Rel. A (Relative Activity) (Human GCG R)	Human GIP R Rel. A (Relative Activity) (Human GIP R)	EC50 (Human GIP R)	EC50 (Human GLP-1R)
CC[C@H](C)[C@H](NC(=O)[C@H](Cc1ccccc1)NC(=O)[C@H](C)NC(=O)C(C)(C)NC(=O)[C@H](CCC(N)=O)NC(=O)[C@H](C)NC(=O)[C@H](CCCCNC(=O)COCCOCCNC(=O)COCCOCCNC(=O)CC[C@H](NC(=O)CCCCCCCCCCCCCCCCCCC(=O)O)C(=O)O)NC(=O)[C@H](CCCCN)NC(=O)[C@H](CC(=O)O)NC(=O)[C@H](CC(C)C)NC(=O)[C@](C)(CC(C)C)NC(=O)[C@@H](NC(=O)[C@H](CO)NC(=O)[C@H](Cc1ccc(O)cc1)NC(=O)[C@H](CC(=O)O)NC(=O)[C@H](CO)NC(=O)[C@@H](NC(=O)[C@](C)(Cc1ccccc1)NC(=O)[C@@H](NC(=O)CNC(=O)[C@H](CCC(N)=O)NC(=O)C(C)(C)NC(=O)[C@@H](N)Cc1ccc(O)cc1)[C@@H](C)O)[C@@H](C)O)[C@@H](C)CC)C(=O)N[C@@H](CCC(=O)O)C(=O)N[C@@H](Cc1ccccc1)C(=O)N[C@@H](CC(C)C)C(=O)N[C@@H](CC(C)C)C(=O)N[C@@H](CCC(=O)O)C(=O)NCC(=O)N[C@@H](CCCNC(=N)N)C(=O)N1CCC[C@H]1C(=O)N[C@@H](CO)C(=O)N[C@@H](CO)C(=O)NC(C)(C)C(=O)N[C@@H](Cc1c[nH]cn1)C(=O)N1CCC[C@H]1C(=O)N1CCC[C@H]1C(=O)N1CCC[C@H]1C(=O)N[C@@H](CO)C(N)=O [Compound 37] (H-Y[Aib]QGT[αMeF]TSDYSI[αMeL]LDKK([AEEA-AEEA-γGlu-C20 diacid])AQ[Aib]AFIEFLLEGRPSS[Aib]HPPPS-NH2; N-terminus assumed)	2.49 nM	152.87%	157.14%	0.176 nM	586.36%	1.04 nM	373.06%	69.51%	1206.67%	0.015 nM	
CC[C@H](C)[C@H](NC(=O)[C@H](Cc1ccccc1)NC(=O)[C@H](C)NC(=O)C(C)(C)NC(=O)[C@H](CCC(N)=O)NC(=O)[C@H](C)NC(=O)[C@H](CCCCNC(=O)COCCOCCNC(=O)COCCOCCNC(=O)CC[C@H](NC(=O)CCCCCCCCCCCCCCCCCCC(=O)O)C(=O)O)NC(=O)[C@H](CCCCN)NC(=O)[C@H](CC(=O)O)NC(=O)[C@H](CC(C)C)NC(=O)[C@](C)(CC(C)C)NC(=O)[C@@H](NC(=O)[C@H](CO)NC(=O)[C@H](Cc1ccc(O)cc1)NC(=O)[C@H](CC(=O)O)NC(=O)[C@H](CO)NC(=O)[C@@H](NC(=O)[C@](C)(Cc1ccccc1F)NC(=O)[C@@H](NC(=O)CNC(=O)[C@H](CCC(N)=O)NC(=O)C(C)(C)NC(=O)[C@@H](N)Cc1ccc(O)cc1)[C@@H](C)O)[C@@H](C)O)[C@@H](C)CC)C(=O)N[C@@H](CCC(=O)O)C(=O)N[C@@H](Cc1ccccc1)C(=O)N[C@@H](CC(C)C)C(=O)N[C@@H](CC(C)C)C(=O)N[C@@H](CCC(=O)O)C(=O)N[C@H](C(=O)N[C@@H](CCCNC(=N)N)C(=O)N1CCC[C@H]1C(=O)N[C@@H](CO)C(=O)N[C@@H](CO)C(=O)NC(C)(C)C(=O)N[C@@H](Cc1c[nH]cn1)C(=O)N1CCC[C@H]1C(=O)N1CCC[C@H]1C(=O)N1CCC[C@H]1C(=O)N[C@@H](CO)C(N)=O)[C@@H](C)O [Compound 39] (H-Y[Aib]QGT[αMePhe(2-F)]TSDYSI[αMeL]LDKK([AEEA-AEEA-γGlu-C20 diacid])AQ[Aib]AFIEFLLETRPSS[Aib]HPPPS-NH2)	2.05 nM	185.83%	56.41%	0.843 nM	122.42%	2.03 nM	191.77%	37.25%	1206.67%	0.015 nM	
CC[C@H](C)[C@H](NC(=O)[C@H](Cc1ccccc1)NC(=O)[C@H](C)NC(=O)C(C)(C)NC(=O)[C@H](CCC(N)=O)NC(=O)[C@H](C)NC(=O)[C@H](CCCCNC(=O)COCCOCCNC(=O)COCCOCCNC(=O)CC[C@H](NC(=O)CCCCCCCCCCCCCCCCCCC(=O)O)C(=O)O)NC(=O)[C@H](CCCCN)NC(=O)[C@H](CC(=O)O)NC(=O)[C@H](CC(C)C)NC(=O)[C@H](CC(C)C)NC(=O)[C@@H](NC(=O)[C@H](CO)NC(=O)[C@H](Cc1ccc(O)cc1)NC(=O)[C@H](CC(=O)O)NC(=O)[C@H](CO)NC(=O)[C@@H](NC(=O)[C@](C)(Cc1ccccc1F)NC(=O)[C@@H](NC(=O)CNC(=O)[C@H](CCC(N)=O)NC(=O)C(C)(C)NC(=O)[C@@H](N)Cc1ccc(O)cc1)[C@@H](C)O)[C@@H](C)O)[C@@H](C)CC)C(=O)N[C@@H](CCC(=O)O)C(=O)N[C@@H](Cc1ccccc1)C(=O)N[C@@H](CC(C)C)C(=O)N[C@@H](CC(C)C)C(=O)N[C@@H](CCC(=O)O)C(=O)N[C@@H](CO)C(=O)N[C@@H](Cc1c[nH]cn1)C(=O)N1CCC[C@H]1C(=O)N[C@@H](CO)C(=O)N[C@@H](CO)C(=O)NC(C)(C)C(=O)N[C@@H](Cc1c[nH]cn1)C(=O)N1CCC[C@H]1C(=O)N1CCC[C@H]1C(=O)NC1(C(=O)N[C@@H](CO)C(N)=O)CC1 [Compound 41] (H-Y[Aib]QGT[αMePhe(2-F)]TSDYSILLDKK([AEEA-AEEA-γGlu-C20 diacid])AQ[Aib]AFIEFLLESHPSS[Aib]HPP[Ac3c]S-NH2; N-terminus assumed)	1.51 nM	252.12%	366.67%	0.136 nM	758.82%	0.907 nM	429.00%	70.37%	247.95%		0.012 nM
CC[C@H](C)[C@H](NC(=O)[C@H](Cc1ccccc1)NC(=O)[C@H](C)NC(=O)C(C)(C)NC(=O)[C@H](CCC(N)=O)NC(=O)[C@H](C)NC(=O)[C@H](CCCCNC(=O)COCCOCCNC(=O)COCCOCCNC(=O)CC[C@H](NC(=O)CCCCCCCCCCCCCCCCCCC(=O)O)C(=O)O)NC(=O)[C@H](CCCCN)NC(=O)[C@H](CC(=O)O)NC(=O)[C@H](CC(C)C)NC(=O)[C@H](CC(C)C)NC(=O)[C@@H](NC(=O)[C@H](CO)NC(=O)[C@H](Cc1ccc(O)cc1)NC(=O)[C@H](CC(=O)O)NC(=O)[C@H](CO)NC(=O)[C@@H](NC(=O)[C@](C)(Cc1ccccc1)NC(=O)[C@@H](NC(=O)CNC(=O)[C@H](CCC(N)=O)NC(=O)C(C)(C)NC(=O)[C@@H](N)Cc1ccc(O)cc1)[C@@H](C)O)[C@@H](C)O)[C@@H](C)CC)C(=O)N[C@@H](CCC(=O)O)C(=O)N[C@@H](Cc1ccccc1)C(=O)N[C@@H](CC(C)C)C(=O)N[C@@H](CC(C)C)C(=O)N[C@@H](CCC(=O)O)C(=O)N[C@@H](CO)C(=O)N[C@@H](Cc1c[nH]cn1)C(=O)N1CCC[C@H]1C(=O)N[C@@H](CO)C(=O)N[C@@H](CO)C(=O)NC(C)(C)C(=O)N[C@@H](Cc1c[nH]cn1)C(=O)N1CCC[C@H]1C(=O)N1CCC[C@H]1C(=O)NC1(C(=O)N[C@@H](CO)C(N)=O)CC1 [Compound 42] (H-Y[Aib]QGT[αMeF]TSDYSILLDKK([AEEA-AEEA-γGlu-C20 diacid])AQ[Aib]AFIEFLLESHPSS[Aib]HPP[Ac3c]S-NH2; N-terminus assumed)	2.73 nM	139.17%	488.89%	0.359 nM	287.47%	1.36 nM	285.26%	11.52%	258.57%		0.009 nM
